Results from patent US11129861B2, “Methods for treating inflammatory diseases” (OKCHUNDANG CO., LTD., priority 2017, dated 2021).
Marks after values point to notes of the source that are not given here.

Legend:
NH4OH exposured mice [1] = assay: Antitussive assay: trachea and lung histopathology; format: in vivo; settings: 50 mg/kg orally, 11 days
Method: SKOG were suspended in distilled water as 40, 20 and 10 mg/ml concentration, and orally administered in a volume of 10 ml/kg (as equivalence to 400, 200 and 100 mg/kg), once a day for 11 days before NH4OH exposure. In addition, AR and KOG were also suspended in distilled water as 40 mg/ml concentration, and orally administered in a volume of 10 ml/kg (as equivalence to 400, 200 and 100 mg/kg), once a day for 11 days before NH4OH exposure. TB was also dissolved in distilled water as 5 mg/ml concentrations, and also orally administered in a volume of 10 ml/kg (as equivalence to 50 mg/kg), once a day for 11 days before NH4OH exposure. In intact vehicle and NH4OH control mice, distilled water 10 ml/kg was orally administered, instead of AR, KOG, SKOG or TB to provide same restrain stresses, in the present experiment. After video image acquirement, some parts of individual lung (left lateral lobes) and trachea (3 mm from thyroid cartilages) were sampled and fixed in 10% neutral buffered formalin (NBF), and crossly trimmed. Then embedded in paraffin, sectioned (3˜4 μm) and stained with Hematoxylin and eosin (H&E) for general histopathology or toluidine blue for mast cells, and after that the histopathological profiles of each sample were observed under light microscope (Model Eclipse 80i, Nikon, Tokyo, Japan). […] The histopathologist was blinds to group distribution when this analysis was made, and at least five repeated measurements in same histological specimens prepared were considered to calculate each mean histomorphometrical value, whenever possible, in this histopathological evaluation (FIG. 4).

[2] = Body weight measurements, antitussive assay; format: in vivo, mice; settings: 50 mg/kg orally
Method: One-hundred thirty two 6-week male SPF/VAF CrljOri:CD1 [ICR] mice (OrientBio, Seungnam, Korea; body weight ranged in 29-32 g upon receipt) were prepared, and eight groups of 10 mice each were selected based on the body weights at 7 days after acclimatization based on the body weights (intact control: 34.30±1.74 g, ranged in 31.8-37.0 g; NH4OH treated mice: 34.17±1.32 g, ranged in 31.0-37.3 g), as follows.
SKOG were suspended in distilled water as 40, 20 and 10 mg/ml concentration, and orally administered in a volume of 10 ml/kg (as equivalence to 400, 200 and 100 mg/kg), once a day for 11 days before NH4OH exposure. In addition, AR and KOG were also suspended in distilled water as 40 mg/ml concentration, and orally administered in a volume of 10 ml/kg (as equivalence to 400, 200 and 100 mg/kg), once a day for 11 days before NH4OH exposure. TB was also dissolved in distilled water as 5 mg/ml concentrations, and also orally administered in a volume of 10 ml/kg (as equivalence to 50 mg/kg), once a day for 11 days before NH4OH exposure. In intact vehicle and NH4OH control mice, distilled water 10 ml/kg was orally administered, instead of AR, KOG, SKOG or TB to provide same restrain stresses, in the present experiment.
Changes of body weight were measured at once a day from 1 day before initial to end of last 11th oral administration of AR, KOG, SKOG or TB using an automatic laboratory animal weighing electronic balance (Precisa Instrument, Dietikon, Switzland). Animals were overnight fasted (about 18 hours, water was not restricted) before initial test substance administration and sacrifice to reduced individual differences from feeding, and also to reduce the individual body weight differences at start of experiment, the body weight gains during 11 days of oral administration of AR, KOG, SKOG or TB were calculated as follow Equation [1], in the current experiment. Body weight gains during 11 days of oral administration of test substances[B−A]=Body weights at last administration[B]−Body weights at first administration[A] Equation [1]

NH4OH exposured mice [3] = assay: Antitussive assay: NH4OH-induced coughing responses; format: in vivo; settings: 50 mg/kg orally, 11 days; compared with NH4OH control mice
Method: NH4OH treated mice: 34.17±1.32 g, ranged in 31.0-37.3 g), as follows. SKOG were suspended in distilled water as 40, 20 and 10 mg/ml concentration, and orally administered in a volume of 10 ml/kg (as equivalence to 400, 200 and 100 mg/kg), once a day for 11 days before NH4OH exposure. In addition, AR and KOG were also suspended in distilled water as 40 mg/ml concentration, and orally administered in a volume of 10 ml/kg (as equivalence to 400, 200 and 100 mg/kg), once a day for 11 days before NH4OH exposure. TB was also dissolved in distilled water as 5 mg/ml concentrations, and also orally administered in a volume of 10 ml/kg (as equivalence to 50 mg/kg), once a day for 11 days before NH4OH exposure. In intact vehicle and NH4OH control mice, distilled water 10 ml/kg was orally administered, instead of AR, KOG, SKOG or TB to provide same restrain stresses, in the present experiment. Coughing was induced by single inhalation of 25% NH4OH (Sigma-Aldrich, St. […] Individual intact vehicle control mouse was exposured to 0.3 ml of saline contained 1,000 ml glass Erlenmeyer flask for 45 sec, instead of NH4OH, in this experiment. The criteria to define cough in mice is that opening the mouth accompanying sound of coughing, contraction of thoracic and abdomen muscles, and a jerking of the front body.

[4] = system: xylene topically applied mice; assay: Anti-inflammatory assay: ear histopathology; format: in vivo; settings: 50 mg/kg orally, 11 days; xylene topically applied mice
Method: AR, KOG and SKOG were orally administered as same as antitussive and expectorant assays, once a day for 11 days before xylene topical applications. In addition, DEXA-water soluble granules were dissolved indistilled water as 1.5 mg/ml concentrations (0.1 mg/ml based on DEXA itself), and also orally administered in a volume of 10 ml/kg (as equivalence to 1 mg/kg based on DEXA itself), once a day for 11 days before xylene topical applications. In intact vehicle and xylene control mice, distilled water 10 ml/kg was orally administered, instead of AR, KOG, SKOG or DEXA to provide same restrain stresses, in the present experiment.
Acute inflammations were induced by single topical application of 0.03 ml of xylene (Duksan Pure Chemical Co. Ltd., Ansan, Korea) to the anterior surface of the right ear at 1 hour after last 11th test substance administration, as described previously with some modifications. Equal volume of saline was topically applied in intact vehicle mouse ears, instead of xylene, in our experiment.
After ear weight measurement, individual ear samples were fixed in 10% NBF, and crossly trimmed. Then embedded in paraffin, sectioned (3˜4 μm) and stained with Hematoxylin and eosin (H&E) for general histopathology or toluidine blue for mast cells, and after that the histopathological profiles of each sample were observed under light microscope. To more detail changes, mean total, epidermis and dermis thicknesses of the ear anterior surface, numbers of infiltrated inflammatory cells and mast cells on the dermis of ear (cells/mm^2), collagen occupied region percentages on the dermis (%/mm2) were analyzed using a computer assisted image analysis program, according to previously established methods, respectively. The histopathologist was blinds to group distribution when this analysis was made, and at least five repeated measurements in same histological specimens prepared were considered to calculate each mean histomorphometrical value, whenever possible, in this histopathological evaluation.

[5] = compared with NH4OH control mice

Cn1cnc2c1c(=O)[nH]c(=O)n2C [TB, theobromine]
Cells Inflammatory (trachea) (NH4OH exposured mice [1]; NH4OH exposured mice): 167.40 ± 40.26^hi Numbers/mm^2 | Cells Mast (trachea) (NH4OH exposured mice [1]; NH4OH exposured mice): 14.30 ± 4.60^hi Numbers/mm^2 | Diameter of lumen (trachea) (NH4OH exposured mice [1]; NH4OH exposured mice): 860.11 ± 100.75^ac μm | Thickness Epithelium (trachea) (NH4OH exposured mice [1]; NH4OH exposured mice): 24.21 ± 4.36^hi μm | Thickness Submucosa (trachea) (NH4OH exposured mice [1]; NH4OH exposured mice): 47.31 ± 11.39^hi μm | Thickness Total wall (trachea) (NH4OH exposured mice [1]; NH4OH exposured mice): 191.23 ± 10.24^hi μm | Alveolar surface area (NH4OH exposured mice [1]; NH4OH exposured mice, lung): 51.13 ± 5.95^ac % | Septum thickness (NH4OH exposured mice [1]; NH4OH exposured mice, lung): 30.53 ± 10.06^gh μm | inflammatory cells (alveolar septum) (NH4OH exposured mice [1]; NH4OH exposured mice, lung): 492.00 ± 114.18^gh numbers/mm^2 | Mean ASA, change (NH4OH exposured mice [1]; [5]): 65.26% | Mean diameters of trachea lumen, change (NH4OH exposured mice [1]; [5]): 30.60% | Mean numbers of infiltrated inflammatory cells on the alveolar septum, change (NH4OH exposured mice [1]; [5]): −73.92% | Mean numbers of infiltrated inflammatory cells on the trachea, change (NH4OH exposured mice [1]; [5]): −62.74% | Mean numbers of infiltrated mast cells on the trachea, change (NH4OH exposured mice [1]; [5]): −63.05% | Mean thicknesses of alveolar septum, change (NH4OH exposured mice [1]; [5]): −57.84% | Mean thicknesses of trachea epithelium, change (NH4OH exposured mice [1]; [5]): −35.48% | Mean thicknesses of trachea submucosa, change (NH4OH exposured mice [1]; [5]): −47.27% | Mean thicknesses of trachea wall, change (NH4OH exposured mice [1]; [5]): −13.23% | Body weight gains (g) [B − A] ([2]; 11 days, NH4OH exposured mice): 1.71 ± 0.97 g | Body weights (g) at test material administration First [A] ([2]; 11 days, NH4OH exposured mice): 29.23 ± 1.49 g | Body weights (g) at test material administration Last [B] ([2]; 11 days, NH4OH exposured mice): 30.94 ± 1.77 g | body weight gains during 11 days, change [2, 5]: 2.40% | Mean numbers of coughing responses during 6 min after 45 sec exposure of NH4OH, change (NH4OH exposured mice [3]): −59.04% | Cells Inflammatory (ear dermis) [4]: 10.10 ± 10.54^fh Numbers/mm^2 | Cells Mast (ear dermis) [4]: 61.30 ± 12.65^c Numbers/mm^2 | Collagen fiber [4]: 77.43 ± 12.79^h %/mm^2 of dermis | Thickness Dermis (ear) [4]: 52.33 ± 13.72^h μm | Thickness Epidermis (ear) [4]: 8.50 ± 1.65 μm | Thickness Total (ear) [4]: 99.55 ± 9.57^h μm
